Laboratory results taken from US8623990B2, “Polyester resin composition” (FUJIFILM Corporation, priority 2010, dated 2014).

Assay: Measurement of pKa by absorption spectrum on addition of perchloric acid
Format: physicochemical
Settings: in acetonitrile, 70% perchloric acid (solvent: acetic acid) added dropwise; proton adduct at nitrogen of triazine ring
Experimental: Compound (2) was dissolved in acetonitrile to give an absorbance of 1 and to this solution, 70% perchloric acid (solvent: acetic acid) was added dropwise, thereby varying the pH. At this time, the absorption spectrum of solution was measured and based on the absorbance at λmax, the proportions of a triazine-free form and a proton adduct were calculated at each pH. From the point at which these values became equal, the pKa value was determined. Here, the triazine-free form indicates Compound (2) itself, and the proton adduct indicates a compound resulting from addition of a proton to the nitrogen atom of triazine ring of Compound (2). Compounds (21), (24), (120), (m-2), (m-3), (m-4), (m-21), (m-31), (m-20) and (m-1), and as comparative compounds, (Example A1) and (Example A2) were determined for the pKa value in the same manner. The absorption spectrum was measured using a spectrophotometer, UV-3600 (trade name), manufactured by Shimadzu Corporation, and the pH was measured using a pH meter, HM60G (trade name), manufactured by To a Denpa Kogyo. Incidentally, the absorbance is a value measured at the maximum absorption wavelength of each compound.

Structure (SMILES)	pKa
CCC(C)CCCCCC(CCCC(C)CC)COC(=O)c1ccc(-c2nc(-c3ccccc3O)nc(-c3ccccc3O)n2)cc1 (stereo not shown) [(24)]	-5
CC(CCOC(=O)c1ccc(-c2nc(-c3ccccc3O)nc(-c3ccccc3O)n2)cc1)CC(C)(C)C (stereo not shown) [(120)]	-5
Oc1ccccc1-c1nc(-c2cccc(Cl)c2)nc(-c2ccccc2O)n1 [(m-4)]	-5
CCCCC(CC)COC(=O)c1ccc(-c2nc(-c3ccccc3O)nc(-c3ccccc3O)n2)cc1 (stereo not shown) [Compound (21)]	-5
